Marks after values point to notes of the source that are not given here.
Experiments:
ER = assay: ERE luciferase reporter (ER transcriptional activation) in hASCs
MERS-CoV [1] = conditions: vs untreated animals; cited from earlier work
MERS-CoV [2] = conditions: in vitro; cited from earlier work
MSC migration = conditions: cited from earlier work
MERS-CoV [3] = conditions: in vitro; cited from earlier work; remark: listed apart in the source
CXCR4 = molecular target: T1, CXCR4 (Mus musculus, UniProt P70658); conditions: cited from earlier work
T1 construct: host or cells: BM-MSCs (endogenous receptor)

AR mRNA = AR mRNA expression in lungs of BLM-treated male mice
[4] = tested on: BLM-induced lung injury in 22-month old male C57BL/6 mice; assay: BLM-induced pulmonary fibrosis in aged mice, ASCs given on day 12; format: in vivo, mouse; conditions: n = 4-5/group
[5] = tested on: myofibroblasts isolated from lungs of patients with IPF; assay: Double transfection of myofibroblasts with miR-29a mimic and miR-199-3p inhibitor; format: cell-based, human
[6] = tested on: myofibroblasts from mouse lungs 21 day post BLM; assay: as above; format: cell-based; conditions: mouse isolates (data not shown)
[7] = lung tissue, day 21, ASCs on day 12 post-BLM
[8] = double transfection miR-29a mimic + miR-199-3p inhibitor, 48 hours post-transfection

T1 sequence (P70658 whole entry): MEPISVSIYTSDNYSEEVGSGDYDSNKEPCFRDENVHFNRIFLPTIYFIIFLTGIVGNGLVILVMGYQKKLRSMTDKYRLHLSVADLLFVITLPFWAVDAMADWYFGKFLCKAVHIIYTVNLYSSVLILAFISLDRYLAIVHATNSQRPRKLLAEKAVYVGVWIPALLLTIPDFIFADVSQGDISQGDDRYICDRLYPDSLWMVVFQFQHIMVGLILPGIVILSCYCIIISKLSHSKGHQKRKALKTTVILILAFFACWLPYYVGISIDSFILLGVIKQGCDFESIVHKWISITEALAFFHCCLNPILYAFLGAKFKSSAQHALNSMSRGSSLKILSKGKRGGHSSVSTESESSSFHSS

C[C@]12CC[C@@H]3c4ccc(O)cc4CC[C@H]3[C@@H]1CC[C@@H]2O [E2, 17β-estradiol]
ER transcriptional activation (luciferase/B-gal) (ER; hASCs from post-menopausal women): less than a two-fold change
ER transcriptional activation (luciferase/B-gal) (ER; hASCs from pre-menopausal women, E2 10 nM): greater than sixfold
ER transcriptional activation (luciferase/B-gal) (ER; hASCs from pre-menopausal women, E2 0.1 and 1 nm): greater than five-fold

C[C@]12CC[C@@H]3c4ccc(O)cc4C[C@@H](CCCCCCCCC[S+]([O-])CCCC(F)(F)C(F)(F)F)[C@H]3[C@@H]1CC[C@@H]2O (stereo partly shown) [ICI 182,780, fulvestrant]
block of E2-induced ER transcriptional activation (ER; hASCs, with E2 1 or 10 nM): able to block activation by E2

COc1c(C)c2c(c(O)c1C/C=C(\C)CCC(=O)O)C(=O)OC2 [MPA, Mycophenolic acid]
disease outcome and viral loads (MERS-CoV [1]): developed severe and/or fatal disease with higher mean viral loads
inhibition activity against MERS-CoV (MERS-CoV [2]): strong inhibition activity

COc1cccc(-c2cc(=O)c3ccccc3o2)c1N [PD98059]
effect on IGF-1-induced increase in MSC migration in response to SDF-1 (MSC migration): not

Cc1cccc(C)c1OCC(=O)N[C@@H](Cc1ccccc1)[C@@H](O)C[C@H](Cc1ccccc1)NC(=O)[C@H](C(C)C)N1CCCNC1=O [lopinavir]
50% effective cytotoxic concentration (EC50) against MERS-CoV (MERS-CoV [3]): suboptimal

TN14003
inhibition of SDF-1 promoted chemotactic migration of BM-MSCs (CXCR4): completely inhibited

bleomycin sulfate [BLM]
increase of AR mRNA in lungs (AR mRNA; BLM-treated male mice): six-fold increase
R mRNA expression/18s (AR mRNA; lungs of BLM-treated male mice (n = 15) vs saline (n = 16), p < 0.05): 2.0 ± 0.5
Interval weight change at day 7 (mean ± SEM) ([4]; day 7 after intratracheal BLM 2.0 U/kg (before ASC administration on day 12)): −14.2 ± 1.7%^a
Overall weight change at day 21 (mean ± SEM) ([4]; day 21 sacrifice, BLM 2.0 U/kg, ASCs 5×10^5 by tail vein on day 12): −27.3 ± 3.7%^aa
Collagen type 1α1 mRNA/18s [4, 7]: 213 ± 63
TNF-α mRNA/18S [4, 7]: 0.80 ± 0.180^a
αvintegrin mRNA/18S [4, 7]: 1.09 ± 0.14^a

miR-29a mimic: plasmid containing miR-29a mimic AACCGATTTCAGATGGTGCT (SEQ ID NO: 1), Exiqon (described as plasmid-borne mimic, chemistry not given here)
Upregulation of miR-29a (RT-PCR) ([5]; co-transfection with miR-199-3p inhibitor): > 5000 fold
MMP-2 activity (zymography) [5, 8]: decreased MMP-2 activity
MMP-2 activity [6]: decreased MMP-2 activity

miR-199-3p inhibitor: plasmid containing miR-199-3p inhibitor AACCAATGTGCAGACTACTG (SEQ ID NO: 2), Exiqon (described as plasmid-borne inhibitor, chemistry not given here)
downregulation of miR-199-3p expression (RT-PCR) ([5]; co-transfection with miR-29a mimic): at least 100 fold
CAV-1 expression (western) [5, 8]: increased CAV-1 expression
CAV-1 expression [6]: increased CAV-1 expression

— patent publication US12097222B2, “Methods for attenuating viral infection and for treating lung injury” (Spiritus Therapeutics, Inc., priority 2019, dated 2024)
